In patent publication US20190275012A9, “SUBSTITUTED THIAZOLO-PYRIDINE COMPOUNDS AS MALT1 INHIBITORS” (Lupin Limited, priority 2016, published 2019):

System: NF-kB transcriptional activity in HEK-293-NF-kB-Luc cell line overexpressing MALT1
Assay: NF-kB reporter assay (luciferase, MALT1 stably overexpressed)
Format: cell-based
Conditions: Homo sapiens, 24 h, HEK-293-NF-kB-Luc cells stably overexpressing MALT1, 24 h treatment, Bright Glo luminescence; read-out: NF-kB inhibition IC50
Description: The NF-⇐B reporter assay was performed to screen for MALT1 inhibition mediated reduction in the NF-⇐B transcriptional activity. For this purpose, MALT1 was stably overexpressed in HEK-293—NF-⇐B-Luc cell line. Cells were seeded in poly-D-lysine coated 96-well plates in a culture medium containing the selection markers (DMEM+10% FBS+50 |g/ml Hygromycin+500 |g/ml Geniticin) and allowed to adhere overnight. On the following day, cells were treated with various concentrations of test compounds for 24 h. After 24 h of treatment with test compounds, media was removed from each well and Bright Glo™ (Promega, USA) substrate was added and incubated for further 10 min at ambient temperature. Luminescence was measured for detection of NF-⇐B reporter activity. RLUs (Relative Luminescence Units) were directly proportional to the NF-⇐B activity. % inhibition of NF-⇐B activity was calculated relative to the samples containing media with 0.1% DMSO alone as per the following formula

Structure (SMILES)	IC50
COC(C)c1c(NC(=O)Nc2ccnc(C(F)(F)F)c2)cnc2sc(C)nc12 (single isomer, unassigned) [Compound 130b, 1-(7-(1-Methoxyethyl)-2-methylthiazolo[5,4-b]pyridin-6-yl)-3-(2-(trifluoromethyl)pyridin-4-yl)urea]	1 to 100 nM
CCC(C)c1c(NC(=O)Nc2cnc(-n3nccn3)c(Cl)c2)cnc2sc(C)nc12 (single isomer, unassigned) [Compound 157a, 1-(7-(sec-Butyl)-2-methylthiazolo[5,4-b]pyridin-6-yl)-3-(5-chloro-6-(2H-1,2,3-triazol-2-yl)pyridin-3-yl)urea]	1 to 100 nM
Cc1nc2c(C3(CO)CC3)c(NC(=O)Nc3cnc(-n4nccn4)c(Cl)c3)cnc2s1 [Compound 105, 1-(5-Chloro-6-(2H-1,2,3-triazol-2-yl)pyridin-3-yl)-3-(7-(1-(hydroxymethyl)cyclopropyl)-2-methylthiazolo[5,4-b]pyridin-6-yl)urea]	1 to 100 nM
COc1nc(OC)c(NC(=O)Nc2cnc3sc(C)nc3c2C(C)C)cc1Cl [Compound 186, 1-(5-Chloro-2,6-dimethoxypyridin-3-yl)-3-(7-isopropyl-2-methylthiazolo[5,4-b]pyridin-6-yl)urea]	501 to 1500 nM
Cc1nc2c(C(N(C)C)C(F)(F)F)c(NC(=O)Nc3cnc(-n4nccn4)c(Cl)c3)cnc2s1 (centres unmarked) [Compound 231b, 1-(5-Chloro-6-(2H-1,2,3-triazol-2-yl)pyridin-3-yl)-3-(7-(1-(dimethylamino)-2,2,2-trifluoroethyl)-2-methylthiazolo[5,4-b]pyridin-6-yl)urea]	1 to 100 nM
Cc1nc2c(C3CC3)c(NC(=O)Nc3ccc(-n4ncnc4C)c(Cl)c3)cnc2s1 [Compound 174, 1-(3-Chloro-4-(5-methyl-1H-1,2,4-triazol-1-yl)phenyl)-3-(7-cyclopropyl-2-methylthiazolo[5,4-b]pyridin-6-yl)urea]	501 to 1500 nM
CCC(c1c(NC(=O)Nc2cnc(-n3nccn3)c(C(F)(F)F)c2)cnc2sc(C)nc12)N1CC(F)(F)C1 (centres unmarked) [Compound 229b, 1-(6-(2H-1,2,3-Triazol-2-yl)-5-(trifluoromethyl)pyridin-3-yl)-3-(7-(1-(3,3-difluoroazetidin-1-yl)propyl)-2-methylthiazolo[5,4-b]pyridin-6-yl)urea]	1 to 100 nM
CCC(OC)c1c(NC(=O)Nc2cnc(OC)c(Cl)c2)cnc2sc(C)nc12 (single isomer, unassigned) [Compound 127a, 1-(5-Chloro-6-methoxypyridin-3-yl)-3-(7-(1-methoxypropyl)-2-methylthiazolo[5,4-b]pyridin-6-yl)urea]	1 to 100 nM
COC(C)c1c(NC(=O)Nc2cnc(-c3ncc(C)o3)c(Cl)c2)cnc2sc(C)nc12 (single isomer, unassigned) [Compound 148b, 1-(5-Chloro-6-(5-methyloxazol-2-yl)pyridin-3-yl)-3-(7-(1-methoxyethyl)-2-methylthiazolo[5,4-b]pyridin-6-yl)urea]	1 to 100 nM
Cc1nc2c(C(N(C)C)C(F)(F)F)c(NC(=O)Nc3cnc(-n4nccn4)c(C(F)(F)F)c3)cnc2s1 (centres unmarked) [Compound 230b, 1-(6-(2H-1,2,3-triazol-2-yl)-5-(trifluoromethyl)pyridin-3-yl)-3-(7-(1-(dimethylamino)-2,2,2-trifluoroethyl)-2-methylthiazolo[5,4-b]pyridin-6-yl)urea]	1 to 100 nM
COC(C)(c1c(NC(=O)Nc2cnc(-n3nccn3)c(C(F)(F)F)c2)cnc2sc(C)nc12)C1CC1 (single isomer, unassigned) [Compound 93a, 1-(6-(2H-1,2,3-triazol-2-yl)-5-(trifluoromethyl)pyridin-3-yl)-3-(7-(1-cyclopropyl-1-methoxyethyl)-2-methylthiazolo[5,4-b]pyridin-6-yl)urea]	1 to 100 nM
Cc1nc2c(N(C)C3CC3)c(NC(=O)Nc3cnc(-n4nccn4)c(C(F)(F)F)c3)cnc2s1 [Compound 100, 1-(6-(2H-1,2,3-Triazol-2-yl)-5-(trifluoromethyl)pyridin-3-yl)-3-(7-(cyclopropyl(methyl)amino)-2-methylthiazolo[5,4-b]pyridin-6-yl)urea]	1 to 100 nM
Cc1nc2c(C3CC3)c(NC(=O)Nc3ccc(-c4nnco4)c(Cl)c3)cnc2s1 [Compound 63, 1-(3-Chloro-4-(1,3,4-oxadiazol-2-yl)phenyl)-3-(7-cyclopropyl-2-methylthiazolo[5,4-b]pyridin-6-yl)urea]	101 to 500 nM
CCOC(C)c1c(NC(=O)Nc2cc(Cl)c(-n3nccn3)nc2OC)cnc2sc(C)nc12 (single isomer, unassigned) [Compound 166b, 1-(5-Chloro-2-methoxy-6-(2H-1,2,3-triazol-2-yl)pyridin-3-yl)-3-(7-(1-ethoxyethyl)-2-methylthiazolo[5,4-b]pyridin-6-yl)urea]	1 to 100 nM
COCCN(c1c(NC(=O)Nc2ccc(-n3nccn3)c(Cl)c2)cnc2sc(C)nc12)C1CC1 [Compound 68, 1-(3-Chloro-4-(2H-1,2,3-triazol-2-yl)phenyl)-3-(7-(cyclopropyl(2-methoxyethyl)amino)-2-methylthiazolo[5,4-b]pyridin-6-yl)urea]	101 to 500 nM
COCC(C)N(C)c1c(NC(=O)Nc2cnc(-n3nccn3)c(Cl)c2)cnc2sc(C)nc12 (centres unmarked) [Compound 53a, 1-(5-Chloro-6-(2H-1,2,3-triazol-2-yl)pyridin-3-yl)-3-(7-((1-methoxypropan-2-yl)(methyl)amino)-2-methylthiazolo[5,4-b]pyridin-6-yl)urea]	1 to 100 nM
CCC(OC)c1c(NC(=O)Nc2cnc(-n3nccn3)c(C(F)(F)F)c2)cnc2sc(C)nc12 (single isomer, unassigned) [Compound 146a, 1-(6-(2H-1,2,3-Triazol-2-yl)-5-(trifluoromethyl)pyridin-3-yl)-3-(7-(1-methoxypropyl)-2-methylthiazolo[5,4-b]pyridin-6-yl)urea]	1 to 100 nM
Cc1nc2c(N3CCCOCC3)c(NC(=O)Nc3cnc(-n4nccn4)c(Cl)c3)cnc2s1 [Compound 67, 1-(5-Chloro-6-(2H-1,2,3-triazol-2-yl)pyridin-3-yl)-3-(2-methyl-7-(1,4-oxazepan-4-yl)thiazolo[5,4-b]pyridin-6-yl)urea]	101 to 500 nM
Cc1ncn(-c2ccc(NC(=O)Nc3cnc4sc(C)nc4c3C3CC3)cc2Cl)n1 [Compound 173, 1-(3-Chloro-4-(3-methyl-1H-1,2,4-triazol-1-yl)phenyl)-3-(7-cyclopropyl-2-methylthiazolo[5,4-b]pyridin-6-yl)urea]	501 to 1500 nM
COc1nc(-n2nccn2)c(Cl)cc1NC(=O)Nc1cnc2sc(C)nc2c1C(OC)C(C)C (centres unmarked) [Compound 81a, 1-(5-Chloro-2-methoxy-6-(2H-1,2,3-triazol-2-yl)pyridin-3-yl)-3-(7-(1-methoxy-2-methylpropyl)-2-methylthiazolo[5,4-b]pyridin-6-yl)urea]	1 to 100 nM
COc1nc(-n2nccn2)c(Cl)cc1NC(=O)Nc1cnc2sc(C)nc2c1C(OC)C1CC1 (single isomer, unassigned) [Compound 156a, 1-(5-Chloro-2-methoxy-6-(2H-1,2,3-triazol-2-yl)pyridin-3-yl)-3-(7-(cyclopropyl(methoxy)methyl)-2-methylthiazolo[5,4-b]pyridin-6-yl)urea]	1 to 100 nM
COC(C)c1c(NC(=O)Nc2cnc(-n3ccnn3)c(C(F)(F)F)c2)cnc2sc(C)nc12 (single isomer, unassigned) [Compound 141a, 1-(6-(1H-1,2,3-Triazol-1-yl)-5-(trifluoromethyl)pyridin-3-yl)-3-(7-(1-methoxyethyl)-2-methylthiazolo[5,4-b]pyridin-6-yl)urea]	1 to 100 nM
COC(c1c(NC(=O)Nc2cnc(-n3nccn3)c(Cl)c2)cnc2sc(C)nc12)C1CC1 (single isomer, unassigned) [Compound 154a, 1-(5-Chloro-6-(2H-1,2,3-triazol-2-yl)pyridin-3-yl)-3-(7-(cyclopropyl(methoxy)methyl)-2-methylthiazolo[5,4-b]pyridin-6-yl)urea]	1 to 100 nM
CCC(c1c(NC(=O)Nc2cnc(-n3nccn3)c(Cl)c2)cnc2sc(C)nc12)N(C)C (single isomer, unassigned) [Compound 227b, 1-(5-Chloro-6-(2H-1,2,3-triazol-2-yl)pyridin-3-yl)-3-(7-(1-(dimethylamino)propyl)-2-methylthiazolo[5,4-b]pyridin-6-yl)urea]	1 to 100 nM
COc1ccc(NC(=O)Nc2cnc3sc(C)nc3c2C(C)OC)cc1Cl (single isomer, unassigned) [Compound 118b, 1-(3-chloro-4-methoxyphenyl)-3-(7-(1-methoxyethyl)-2-methylthiazolo[5,4-b]pyridin-6-yl)urea]	101 to 500 nM
Cc1nc2c(C3CC3)c(NC(=O)Nc3ccnc(C#N)c3)cnc2s1 [Compound 12, 1-(2-Cyanopyridin-4-yl)-3-(7-cyclopropyl-2-methylthiazolo[5,4-b]pyridin-6-yl)urea]	501 to 1500 nM
COc1ncc(NC(=O)Nc2cnc3sc(C)nc3c2C2(C)CC2)cc1Cl [Compound 117, 1-(5-Chloro-6-methoxypyridin-3-yl)-3-(2-methyl-7-(1-methylcyclopropyl)thiazolo[5,4-b]pyridin-6-yl)urea]	1 to 100 nM
CCOC(C)c1c(NC(=O)Nc2ccc(-n3nccn3)c(Cl)c2)cnc2sc(C)nc12 (racemic) [Compound 161, 1-(3-Chloro-4-(2H-1,2,3-triazol-2-yl)phenyl)-3-(7-(1-ethoxyethyl)-2-methylthiazolo[5,4-b]pyridin-6-yl)urea]	1 to 100 nM
COc1ncc(NC(=O)Nc2cnc3sc(C)nc3c2C2CC2)cc1C#N [Compound 62, 1-(5-Cyano-6-methoxypyridin-3-yl)-3-(7-cyclopropyl-2-methylthiazolo[5,4-b]pyridin-6-yl)urea]	101 to 500 nM
